Values after ≈ are worked out from the molar mass of the structure shown.
What was measured:
Mannheimia haemolytica = experiment: minimum inhibitory concentration (MIC)
Description: (§1)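 Broth microdilution MIC (Sensititre BOPO7F bovine plate, CLSI methods) of 19 antimicrobials against field isolates of P. multocida, M. haemolytica, H. somni (deep nasopharyngeal swabs) and E. coli, Enterococcus spp. (rectal swabs) from weaned dairy heifers. Incubation 16-24 h at 35 C. MIC is the lowest concentration preventing visible growth. Values with <= or > lie at the tested range limits. Trimethoprim-sulfamethoxazole is given as the trimethoprim component of a 1:19 mixture.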

Enterococcus spp. = experiment: minimum inhibitory concentration (MIC)
Description: as §1

CCN1CCN(c2cc3c(cc2F)c(=O)c(C(=O)O)cn3C2CC2)CC1 [Enrofloxacin]
minimum inhibitory concentration [µg/mL]
Conditions | Enterococcus spp. | Mannheimia haemolytica
isolate (source animal id): 2 | 0.25 (≈ 0.696 µM) | –
isolate (source animal id): 8 | – | 0.5 (≈ 1.39 µM)
isolate (source animal id): 13 | – | 0.5 (≈ 1.39 µM)
isolate (source animal id): 18 | – | 0.5 (≈ 1.39 µM)
isolate (source animal id): 21 | – | 0.5 (≈ 1.39 µM)
isolate (source animal id): 25 | – | 0.5 (≈ 1.39 µM)
isolate (source animal id): 27 | – | 0.5 (≈ 1.39 µM)
isolate (source animal id): 28 | – | 1 (≈ 2.78 µM)
isolate (source animal id): 30 | – | 0.5 (≈ 1.39 µM)
isolate (source animal id): 31 | – | 1 (≈ 2.78 µM)
isolate (source animal id): 32 | – | 0.25 (≈ 0.696 µM)
isolate (source animal id): 34 | – | 0.5 (≈ 1.39 µM)
isolate (source animal id): 35 | > 2 | –
isolate (source animal id): 36 | – | 0.5 (≈ 1.39 µM)
isolate (source animal id): 37 | – | 1 (≈ 2.78 µM)
isolate (source animal id): 40 | – | 0.5 (≈ 1.39 µM)
isolate (source animal id): 41 | – | 0.5 (≈ 1.39 µM)
isolate (source animal id): 42 | 0.5 (≈ 1.39 µM) | –
isolate (source animal id): 43 | – | 0.5 (≈ 1.39 µM)
isolate (source animal id): 44 | 0.5 (≈ 1.39 µM) | –
isolate (source animal id): 46 | – | 0.5 (≈ 1.39 µM)
isolate (source animal id): 49 | – | 0.5 (≈ 1.39 µM)
isolate (source animal id): 50 | – | 0.5 (≈ 1.39 µM)
isolate (source animal id): 51 | – | 0.5 (≈ 1.39 µM)
isolate (source animal id): 52 | – | 0.5 (≈ 1.39 µM)
isolate (source animal id): 53 | – | 0.5 (≈ 1.39 µM)
isolate (source animal id): 55 | – | 0.5 (≈ 1.39 µM)
isolate (source animal id): 56 | – | 0.5 (≈ 1.39 µM)
isolate (source animal id): 57 | – | > 2
isolate (source animal id): 79 | 1 (≈ 2.78 µM) | –
isolate (source animal id): 88 | 0.25 (≈ 0.696 µM) | –
isolate (source animal id): 91 | 0.25 (≈ 0.696 µM) | –
isolate (source animal id): 92 | 1 (≈ 2.78 µM) | –
isolate (source animal id): 100 | – | 2 (≈ 5.56 µM)
isolate (source animal id): 103 | – | 0.5 (≈ 1.39 µM)
isolate (source animal id): 107 | – | 0.5 (≈ 1.39 µM)
isolate (source animal id): 108 | – | 0.5 (≈ 1.39 µM)
isolate (source animal id): 111 | 0.25 (≈ 0.696 µM) | –
isolate (source animal id): 112 | – | 0.5 (≈ 1.39 µM)
isolate (source animal id): 113 | – | > 2
isolate (source animal id): 121 | – | 0.5 (≈ 1.39 µM)
isolate (source animal id): 122 | 1 (≈ 2.78 µM) | 0.5 (≈ 1.39 µM)
isolate (source animal id): 123 | 0.5 (≈ 1.39 µM) | > 2
isolate (source animal id): 126 | – | 2 (≈ 5.56 µM)
isolate (source animal id): 133 | 1 (≈ 2.78 µM) | > 2
isolate (source animal id): 135 | – | > 2
isolate (source animal id): 138 | – | 2 (≈ 5.56 µM)
isolate (source animal id): 141 | – | > 2
isolate (source animal id): 142 | – | 1 (≈ 2.78 µM)
isolate (source animal id): 145 | – | 1 (≈ 2.78 µM)
isolate (source animal id): 149 | – | ≤ 0.12
isolate (source animal id): 151 | – | ≤ 0.12
isolate (source animal id): 152 | – | 1 (≈ 2.78 µM)
isolate (source animal id): 154 | – | ≤ 0.12
isolate (source animal id): 158 | 0.5 (≈ 1.39 µM) | –
isolate (source animal id): 159 | – | 1 (≈ 2.78 µM)
isolate (source animal id): 162 | – | 1 (≈ 2.78 µM)
isolate (source animal id): 168 | 0.5 (≈ 1.39 µM) | –
isolate (source animal id): 169 | 0.5 (≈ 1.39 µM) | –
isolate (source animal id): 170 | – | ≤ 0.12
isolate (source animal id): 171 | 0.5 (≈ 1.39 µM) | ≤ 0.12
isolate (source animal id): 172 | – | ≤ 0.12
isolate (source animal id): 173 | – | ≤ 0.12
isolate (source animal id): 175 | 1 (≈ 2.78 µM) | –
isolate (source animal id): 177 | 2 (≈ 5.56 µM) | –
isolate (source animal id): 179 | – | ≤ 0.12
isolate (source animal id): 180 | – | ≤ 0.12
isolate (source animal id): 181 | 0.5 (≈ 1.39 µM) | –
isolate (source animal id): 182 | 0.5 (≈ 1.39 µM) | –
isolate (source animal id): 183 | 0.5 (≈ 1.39 µM) | ≤ 0.12
isolate (source animal id): 186 | – | ≤ 0.12
isolate (source animal id): 187 | 0.5 (≈ 1.39 µM) | ≤ 0.12
isolate (source animal id): 188 | – | ≤ 0.12
isolate (source animal id): 190 | 0.5 (≈ 1.39 µM) | ≤ 0.12
isolate (source animal id): 191 | – | ≤ 0.12
isolate (source animal id): 192 | – | ≤ 0.12
isolate (source animal id): 194 | 0.5 (≈ 1.39 µM) | –
isolate (source animal id): 195 | 0.5 (≈ 1.39 µM) | –
isolate (source animal id): 197 | 0.5 (≈ 1.39 µM) | –
isolate (source animal id): 201 | – | ≤ 0.12
isolate (source animal id): 202 | – | ≤ 0.12
isolate (source animal id): 209 | – | ≤ 0.12
isolate (source animal id): 211 | 0.5 (≈ 1.39 µM) | ≤ 0.12
isolate (source animal id): 214 | 1 (≈ 2.78 µM) | –
isolate (source animal id): 220 | – | ≤ 0.12
isolate (source animal id): 221 | – | ≤ 0.12
isolate (source animal id): 222 | 0.5 (≈ 1.39 µM) | –
isolate (source animal id): 223 | 0.25 (≈ 0.696 µM) | ≤ 0.12
isolate (source animal id): 228 | 0.5 (≈ 1.39 µM) | –
isolate (source animal id): 230 | 0.5 (≈ 1.39 µM) | –
isolate (source animal id): 233 | – | 1 (≈ 2.78 µM)
isolate (source animal id): 235 | 0.5 (≈ 1.39 µM) | –
isolate (source animal id): 236 | 2 (≈ 5.56 µM) | –
isolate (source animal id): 237 | – | 1 (≈ 2.78 µM)
isolate (source animal id): 239 | 2 (≈ 5.56 µM) | –
isolate (source animal id): 241 | 0.5 (≈ 1.39 µM) | 1 (≈ 2.78 µM)
isolate (source animal id): 244 | 0.5 (≈ 1.39 µM) | –
isolate (source animal id): 246 | 0.5 (≈ 1.39 µM) | –
isolate (source animal id): 247 | 0.5 (≈ 1.39 µM) | –
isolate (source animal id): 250 | 0.25 (≈ 0.696 µM) | –
isolate (source animal id): 252 | > 2 | 0.5 (≈ 1.39 µM)
isolate (source animal id): 253 | – | 0.5 (≈ 1.39 µM)
isolate (source animal id): 259 | – | > 2
isolate (source animal id): 260 | – | 0.5 (≈ 1.39 µM)
isolate (source animal id): 262 | – | 1 (≈ 2.78 µM)
isolate (source animal id): 268 | 0.25 (≈ 0.696 µM) | –
isolate (source animal id): 282 | 1 (≈ 2.78 µM) | > 2
isolate (source animal id): 285 | 1 (≈ 2.78 µM) | –
isolate (source animal id): 287 | – | 0.5 (≈ 1.39 µM)
isolate (source animal id): 288 | – | ≤ 0.12
isolate (source animal id): 289 | 0.5 (≈ 1.39 µM) | –
isolate (source animal id): 290 | 0.5 (≈ 1.39 µM) | –
isolate (source animal id): 291 | – | ≤ 0.12
isolate (source animal id): 293 | – | 0.5 (≈ 1.39 µM)
isolate (source animal id): 296 | 0.5 (≈ 1.39 µM) | –
isolate (source animal id): 298 | 0.5 (≈ 1.39 µM) | 0.5 (≈ 1.39 µM)
isolate (source animal id): 299 | – | 0.5 (≈ 1.39 µM)
isolate (source animal id): 300 | – | ≤ 0.12
isolate (source animal id): 301 | 0.5 (≈ 1.39 µM) | –
isolate (source animal id): 302 | – | 0.5 (≈ 1.39 µM)
isolate (source animal id): 304 | – | 0.5 (≈ 1.39 µM)
isolate (source animal id): 306 | – | ≤ 0.12
isolate (source animal id): 308 | – | ≤ 0.12
isolate (source animal id): 309 | – | ≤ 0.12
isolate (source animal id): 310 | 1 (≈ 2.78 µM) | –
isolate (source animal id): 313 | – | 0.5 (≈ 1.39 µM)
isolate (source animal id): 318 | – | 0.25 (≈ 0.696 µM)
isolate (source animal id): 320 | 0.5 (≈ 1.39 µM) | ≤ 0.12
isolate (source animal id): 321 | – | 0.5 (≈ 1.39 µM)
isolate (source animal id): 323 | – | 0.5 (≈ 1.39 µM)
isolate (source animal id): 324 | – | 0.5 (≈ 1.39 µM)
isolate (source animal id): 326 | – | 0.5 (≈ 1.39 µM)
isolate (source animal id): 328 | – | 0.5 (≈ 1.39 µM)
isolate (source animal id): 329 | – | 0.5 (≈ 1.39 µM)
isolate (source animal id): 331 | 0.5 (≈ 1.39 µM) | –
isolate (source animal id): 333 | 0.5 (≈ 1.39 µM) | 0.5 (≈ 1.39 µM)
isolate (source animal id): 335 | – | 0.5 (≈ 1.39 µM)
isolate (source animal id): 338 | – | 0.5 (≈ 1.39 µM)
isolate (source animal id): 341 | > 2 | –
